# Measurements as given in paper PMC5015106 (Scientific Reports, 2016).
# pIC50, pKi: −log10 of the molar value. Numbered stars: 1 amine (or outer) side, 2 acyl side, 3 side chain; on linkers, the order of the positions; unused ones are H or OH. Bridge positions count the residues as written; N and C are the ends. Square brackets hold non-standard residues; d marks the D form. Peptide text beside a SMILES is read from it. hTyr = N[CH](CCc1ccc(O)cc1)C(=O)O; NMeA = CN[CH](C)C(=O)O; CO = O=C([*:1])[*:2]
# Assays:
# Format in all cases: biochemical
# CPA = target: T1, CPA (Homo sapiens, UniProt P15085); assay: Protease/carboxypeptidase panel: CPA
# T1 sequence (P15085 111-419): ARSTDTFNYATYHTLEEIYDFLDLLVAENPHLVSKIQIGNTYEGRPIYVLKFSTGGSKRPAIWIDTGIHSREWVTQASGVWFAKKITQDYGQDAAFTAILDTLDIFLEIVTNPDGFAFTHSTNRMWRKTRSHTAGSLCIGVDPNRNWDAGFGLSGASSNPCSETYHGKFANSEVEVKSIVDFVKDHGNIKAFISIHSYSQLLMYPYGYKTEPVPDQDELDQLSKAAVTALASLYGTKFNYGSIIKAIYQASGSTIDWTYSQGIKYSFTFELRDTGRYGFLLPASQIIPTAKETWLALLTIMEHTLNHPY
# Excerpt: Supplement srep32958-s1.docx, table 1: Table S1: Activities of Anabaenopeptins against a panel of proteases/carboxypeptidases. | column: CPA
# CPN = target: T2, CPN (Homo sapiens, UniProt P15169); assay: Protease/carboxypeptidase panel: CPN; settings: read-out: IC50 CPN
# T2 sequence (P15169 21-458): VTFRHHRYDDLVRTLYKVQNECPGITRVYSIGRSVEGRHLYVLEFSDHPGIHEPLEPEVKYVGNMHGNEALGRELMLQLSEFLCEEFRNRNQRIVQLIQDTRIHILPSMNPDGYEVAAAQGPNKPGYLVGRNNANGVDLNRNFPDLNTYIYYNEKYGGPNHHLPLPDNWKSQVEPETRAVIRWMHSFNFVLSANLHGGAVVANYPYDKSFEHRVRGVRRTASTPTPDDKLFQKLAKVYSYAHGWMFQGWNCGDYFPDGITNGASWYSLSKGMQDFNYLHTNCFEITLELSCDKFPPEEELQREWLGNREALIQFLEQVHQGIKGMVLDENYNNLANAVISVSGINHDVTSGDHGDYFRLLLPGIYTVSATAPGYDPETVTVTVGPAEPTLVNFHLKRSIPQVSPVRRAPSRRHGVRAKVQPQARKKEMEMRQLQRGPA
# T2 sequence (P22792 22-545 partner): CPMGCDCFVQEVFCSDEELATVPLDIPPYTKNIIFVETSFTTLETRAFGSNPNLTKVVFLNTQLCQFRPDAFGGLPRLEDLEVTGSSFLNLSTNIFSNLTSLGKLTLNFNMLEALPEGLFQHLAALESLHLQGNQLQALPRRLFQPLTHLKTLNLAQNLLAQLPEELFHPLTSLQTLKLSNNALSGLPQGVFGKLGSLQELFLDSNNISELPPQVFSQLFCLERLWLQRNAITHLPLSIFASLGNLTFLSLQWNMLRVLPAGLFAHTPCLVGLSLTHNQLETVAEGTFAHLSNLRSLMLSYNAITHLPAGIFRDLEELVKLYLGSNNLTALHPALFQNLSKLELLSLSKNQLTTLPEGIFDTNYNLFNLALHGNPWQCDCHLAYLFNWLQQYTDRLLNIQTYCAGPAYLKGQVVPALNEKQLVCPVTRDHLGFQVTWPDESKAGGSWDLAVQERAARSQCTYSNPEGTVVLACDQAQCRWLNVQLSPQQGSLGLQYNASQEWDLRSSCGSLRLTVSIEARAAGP
# Excerpt: Supplement srep32958-s1.docx, table 1: Table S1: Activities of Anabaenopeptins against a panel of proteases/carboxypeptidases. | column: CPN
# FXa = FXa (Homo sapiens, UniProt P00742); assay: Protease/carboxypeptidase panel: FXa; settings: for inhibition at 100 µM: read-out: Inh.@100µM in % FXa
# Chain of FXa (P00742 235-488 limits assumed): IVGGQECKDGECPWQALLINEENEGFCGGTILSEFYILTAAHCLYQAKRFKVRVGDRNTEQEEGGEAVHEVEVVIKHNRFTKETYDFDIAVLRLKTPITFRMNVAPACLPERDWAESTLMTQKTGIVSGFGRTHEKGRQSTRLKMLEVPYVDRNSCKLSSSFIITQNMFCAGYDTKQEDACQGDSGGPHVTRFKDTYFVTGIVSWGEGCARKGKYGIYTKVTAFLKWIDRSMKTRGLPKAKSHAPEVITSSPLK
# Chain of FXa (P00742 41-179 partner limits assumed): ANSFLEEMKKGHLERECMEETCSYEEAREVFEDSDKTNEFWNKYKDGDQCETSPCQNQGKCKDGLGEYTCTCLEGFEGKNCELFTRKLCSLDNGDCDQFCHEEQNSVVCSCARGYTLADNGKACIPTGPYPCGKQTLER
# Excerpt: Supplement srep32958-s1.docx, table 1: Table S1: Activities of Anabaenopeptins against a panel of proteases/carboxypeptidases. | column: FXa
# FVIIa = target: T3, FVIIa (Homo sapiens, UniProt P08709); assay: Protease/carboxypeptidase panel: FVIIa; settings: read-out: Inh.@100µM in % FVIIa
# T3 sequence (P08709 213-466 limits assumed): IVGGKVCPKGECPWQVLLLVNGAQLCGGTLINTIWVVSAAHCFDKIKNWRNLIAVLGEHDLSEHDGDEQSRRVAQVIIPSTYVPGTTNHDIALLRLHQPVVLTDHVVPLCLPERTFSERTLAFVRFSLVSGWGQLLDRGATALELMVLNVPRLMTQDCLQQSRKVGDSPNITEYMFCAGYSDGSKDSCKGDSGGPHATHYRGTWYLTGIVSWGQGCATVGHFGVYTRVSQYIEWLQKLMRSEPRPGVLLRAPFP
# T3 sequence (P08709 61-212 partner limits assumed): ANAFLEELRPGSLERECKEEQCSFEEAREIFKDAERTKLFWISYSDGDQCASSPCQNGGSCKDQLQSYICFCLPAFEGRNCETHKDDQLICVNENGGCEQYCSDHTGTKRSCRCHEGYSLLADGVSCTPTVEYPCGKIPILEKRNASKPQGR
# Excerpt: Supplement srep32958-s1.docx, table 1: Table S1: Activities of Anabaenopeptins against a panel of proteases/carboxypeptidases. | column: FVIIa
# FIIa = FIIa (Homo sapiens, UniProt P00734); assay: Protease/carboxypeptidase panel: FIIa; settings: read-out: Ki FIIa
# Excerpt: Supplement srep32958-s1.docx, table 1: Table S1: Activities of Anabaenopeptins against a panel of proteases/carboxypeptidases. | column: FIIa
Compound,pIC50 (CPA),pIC50 (CPN),inhibition at 100 µM (FXa) [%],inhibition at 100 µM (FVIIa) [%],pKi (FIIa),"inhibition at 100 µM (CPA; 100 µM, read-out: Inh.@100µM in % CPA) [%]",pKi (FXa)
"CC(C)[C@@H]1NC(=O)[C@H](NC(=O)N[C@@H](CCCNC(=N)N)C(=O)O)CCCCNC(=O)[C@H](Cc2ccccc2)NC(=O)[C@H](C)N(C)C(=O)[C@H](CCc2ccc(O)cc2)NC1=O [Compound 1, Anabaenopeptin B] ({Arg-CO}-[dK]V[hTyr][NMeA]F; lactam 1-C)",5.41,5.27,22,35,5.80,–,–
"CC(C)C1NC(=O)C(NC(=O)NC(CCCCN)C(=O)O)CCCCNC(=O)C(Cc2ccccc2)NC(=O)C(C)N(C)C(=O)C(CCc2ccc(O)cc2)NC1=O (centres unmarked) [Compound 2, Anabaenopeptin C] ({Lys-CO}-KV[hTyr][NMeA]F; lactam 1-C; configuration not given here)",–,5.24,42,36,5.22,31,–
"CC[C@H](C)[C@@H]1NC(=O)[C@H](NC(=O)N[C@@H](CCCNC(=N)N)C(=O)O)CCCCNC(=O)[C@H](Cc2ccccc2)NC(=O)[C@H](C)N(C)C(=O)[C@H](CCc2ccc(O)cc2)NC1=O [Compound 3, Anabaenopeptin F] ({Arg-CO}-[dK]I[hTyr][NMeA]F; lactam 1-C)",5.96,5.57,–,–,6.46,–,4.42
